Experiments:
[1] = tested on: RAW 264.7 cells; assay: RANKL-induced OCL differentiation of RAW 264.7 cells (TRAP); format: cell-based, murine; conditions: 5 days, RANKL 50 ng/ml, SDX-101 75 μM, SDX-308 7.5 μM
Procedure: (§1) The culture was incubated for a total of 3 weeks at 37° C. in an incubator of 5% CO2-air. OCL formation was assessed by staining with monoclonal antibody 23c6, which recognizes the CD51/61 dimer on the osteoclast vitronectin receptor (generously provided by Michael Horton, Rayne Institute, Bone and Mineral Center, London, UK), using a Vectastatin-ABC-AP kit (Vector Laboratories, Inc. Burlingame, Calif.). The 23c6^+ multinucleated osteoclasts containing 3 or more nuclei per osteoclast were scored using an inverted microscope. For RAW 264.7 cells, OCL differentiation assay was carried out in 96-well plates. […] Half media change was performed every 2-3 days by replacing with fresh medium containing RANKL with or without tested drugs. Cells were fixed and stained with TRAP-staining kit (Sigma-Aldrich) according to the manufacturer's instructions. TRAP-positive multinuclear cells (>3 nuclei) were counted under the inverted microscope.

[2] = tested on: MM cell lines and freshly isolated primary MM cells; conditions: Yasui H et al., 2005; cited from earlier work
[3] = tested on: MC-42 cells; assay: Osteoblast mineralization (von Kossa); format: cell-based, mouse; conditions: 48 hours, 5.0 mM inorganic phosphate
From the text: (§2) Cells were then harvested for luciferase and ALP (alkaline phosphatase) activity assay. Luciferase and ALP activity were normalized to total protein content of the sample (Xiao G et al. (1997) Mol. Endocrinol. 11:1103-13). […] Samples were then stained using the Von Kossa method (Xiao G et al. (1998) J. Biol. Chem. 273:32988-94).

[4] = tested on: IFN-γ; assay: Bio-plex cytokine assay of osteoclast culture supernatants: IFN-γ; format: cell-based, human; conditions: three weeks treatment
Procedure: (§3) Supernatants collected on day 5, 9, 12, 16 and 21 were analyzed for expression of IL-1α, IL-1β, IL-2, IL-3, IL-4, IL-5, IL-6, IL-7, IL-8, IL-9, IL-10, IL-13, IL-15, IL-17, IL-12p40, IFNα, IFNγ, TNF-α, TNFR-I, TNFR-II, G-CSF, GM-CSF, MCP-1, MIP-1α, MIP-1β, MIG, IP-10, EOTAXIN, RANTES, DR5, EGF, VEGF, FGF-b, and HGF by Bio-plex Cytokine Assay (BIO-RAD Laboratories, USA).

[5] = tested on: bone marrow cells from healthy donor on whale dentin slices; assay: Osteoclastic bone resorption on dentin slices; format: cell-based, human; conditions: 3 weeks
Procedure: Bone marrow cells from healthy donor (2×10^5 cells/well) were seeded on whale dentin slices in 96-well multi-plates at 100 μl/well in α-MEM medium containing 20% horse serum. In addition, 10 ng/ml M-CSF and 50 ng/ml RANKL were added. Half media changes were performed twice a week with fresh media. […] Culture was continued for 3 weeks at 37° C. in an incubator of 5% CO2-air. After 3 weeks, dentin slices were stained with TRAP staining to confirm the osteoclast formation. Then, bone resorption lacunae were stained with hematoxylin. Pit area was quantified by using the public domain NIH ImageJ program. Fixed small representative areas on dentin slices selected and the mean resorption areas were determined.

[6] = tested on: CD34+ cells (hematopoietic progenitors); assay: Colony assays in methylcellulose; format: cell-based, human; conditions: 14 days
Procedure: Methocult GF H4434 contained the following hematopoietic growth factors: recombinant human (rh) Erythropoietin 3 U/ml, rh SCF 50 ng/ml, rh granulocyte-macrophage colony-stimulating factor (GM-CSF) 10 ng/ml, and rh IL-310 ng/ml as well as Methylcellulose (1%), Fetal Bovine Serum 30%, Bovine Serum Albumin (1%), 2-Mercaptoethanol ([…]), and L-glutamine (2 mM). Cells were incubated in at 37° C., 5% CO2 with 95% humidity for 14-16 days. Formation and relative distribution of burst forming unit-erythroid (BFU-E), colony forming unit-macrophages (CFU-M) and colony forming unit-granulocyte, macrophage (CFU-GM) colonies were evaluated by scoring under an inverted microscope. Each colony experiment was carried out in triplicate.

[7] = tested on: MM.1S cells; assay: Proliferation assay (3H-thymidine incorporation), MM.1S; format: cell-based, human; conditions: 48 hours
Procedure: (§4) DNA synthesis was measured by ^3H-thymidine incorporation (3H-TdR; NEN Products, Zaventem, Belgium). Cells were pulsed with ^3H-thymidine (1 μCi/well) during the last 8 hours of culture, harvested onto glassfibre filter mats (Wallac, Gaithersburg, Md.) with an automatic cell harvester (Tomtec Harvester 960 MachIII), and counted using Wallac TriLux Beta plate scintillation counter. All experiments were performed in triplicate.

[8] = tested on: CFU-GM colony cells (osteoclast precursors); assay: Osteoclast formation assay with purified CFU-GM cells; format: cell-based, human
[9] = tested on: non-adherent mononuclear bone marrow cells from multiple myeloma patients; assay: Osteoclast formation assay, MM patient bone marrow; format: cell-based, human
Procedure: (§5) Non-adherent mononuclear cells (10^5 cells/well) from either healthy donor or multiple myeloma patients, as well as purified human CD34^+ cells, were seeded in 96-well multi-plates at 100 μl/well in α-MEM medium containing 20% horse serum, 10 ng/ml M-CSF and 50 ng/ml RANKL. […] Half media change was carried out twice a week.
as §1

[10] = tested on: IκBα; assay: Western blot of IκBα phosphorylation and degradation, MM.1S; format: cell-based, human
Procedure: For detection of p65 translocation, cellular nuclear and cytoplasmic extracts were prepared with Nuclear and Cytoplasmic Extraction Reagents (Pierce, Rockford, Ill.). Cell lysates (20-40 μg) were subjected to 10% sodium dodecyl sulfate-polyacrylamide gel electrophoresis and transferred to PVDF membrane (Millipore, Danvers, Mass.). The blots were probed with anti-p65, anti-phospho p65, anti-IκB-α, anti-phospho IκB-α, or anti-phospho IKK-γ (all from Cell Signaling, Beverly, Mass.), and beta-actin antibody (Amersham, Piscataway, N.J.). Immune complexes were detected using enhanced chemiluminescence (Amersham).

[11] = tested on: MIP-1α; assay: Bio-plex cytokine assay of osteoclast culture supernatants: MIP-1α; format: cell-based, human; conditions: day four; controls 12,000
From the text: […] of IL-1α, IL-1β, IL-2, IL-3, IL-4, IL-5, IL-6, IL-7, IL-8, IL-9, IL-10, IL-13, IL-15, IL-17, IL-12p40, IFNα, IFNγ, TNF-α, TNFR-I, TNFR-II, G-CSF, GM-CSF, MCP-1, MIP-1α, MIP-1β, MIG, IP-10, EOTAXIN, RANTES, DR5, EGF, VEGF, FGF-b, and HGF by Bio-plex Cytokine Assay (BIO-RAD Laboratories, USA).

[12] = tested on: non-adherent mononuclear bone marrow cells from healthy donors; format: cell-based
Procedure: as §5, §1

[13] = tested on: MIG (monokine induced by IFN-gamma); assay: Bio-plex cytokine assay of osteoclast culture supernatants: MIG; format: cell-based, human; conditions: three weeks treatment
Procedure: as §3

[14] = tested on: MC-42 cells (MC3T3-E1 pre-osteoblastic); assay: Osteoblast differentiation: ALP activity; format: cell-based, mouse; conditions: SDX-101 75 μM, SDX-308 7.5 μM, 24 hours
From the text: as §2

[15] = tested on: RAW 264.7 cells; assay: Cellular viability of RAW 264.7 cells; format: cell-based, mouse; conditions: data not shown
[16] = tested on: OPM2 cells; assay: Proliferation assay (3H-thymidine incorporation), OPM2; format: cell-based, human; conditions: 48 hours
Procedure: as §4

[17] = tested on: RPMI-8226 cells; assay: Proliferation assay (3H-thymidine incorporation), RPMI-8226; format: cell-based, human; conditions: RPMI-1822 / RPMI cells as printed, 48 hours
Procedure: as §4

SMILES: CCc1cccc2c3c([nH]c12)[C@@](CC)(CC(=O)O)OCC3 [SDX-101, R-etodolac]
- RANKL-induced OCL formation from RAW 264.7 cells [1]: suppressed
- apoptosis [2]: induces apoptosis
- mineralization of osteoblasts (von Kossa staining) [3]: did not inhibit mineralization
- IFN-γ secretion in osteoclast formation assays [4]: significantly decreased
- measured bone resorption area ([5]; 75 μM, untreated control 8.6): 1.3 mm^2
- bone resorption ([5]; SDX-101 75 μM, SDX-308 7.5 μM): inhibited significantly
- number of the CFU colonies formed compared to untreated cells ([6]; CD34+ cells): not significantly different
- interference with hematopoietic lineage commitment ([6]; SDX-101 30, 50, 75 μM, SDX-308 1, 5, 7.5 μM): none of the doses tested for both SDX derivatives interferes
- concentration at which DNA synthesis (thymidine incorporation) was significantly inhibited [7]: 10 µM
- osteoclast inhibition by time point of drug addition ([8]; first 1, 2 or 3 weeks or last 1, 2 or 3 weeks): no differences in osteoclast inhibition
- osteoclast numbers formed from osteoclast progenitor cells ([8]; purified CFU-GM cells, 21 days): significantly decreased osteoclast numbers
- inhibition of OCL formation, time course of drug addition ([9]; MM patient cells, SDX-101 75 μM, SDX-308 7.5 μM, 3 weeks vs first/last 1 or 2 weeks): significantly higher when drug was added during the entire 3 weeks
- inhibition of RANK-L/M-CSF-induced human osteoclastogenesis ([9]; MM patient cultures, 21-day assay, SDX-101 30 to 100 μM, SDX-308 3 to 10 μM): dose-dependent inhibition
- TNF-induced IκBα phosphorylation and degradation [10]: minor or no obvious effect
- MIP-1α in supernatant [11]: 6,000 pg/ML
- doses exhibiting inhibition of OCL formation ([12]; 3 weeks, RANKL 50 ng/ml, M-CSF 10 ng/ml): over 50 μM
- cell death during the 3 week OCL formation assay ([12]; any doses tested): No cell death was observed
- inhibition of OCL formation, time course of drug addition ([12]; healthy donor cells, SDX-101 75 μM, SDX-308 7.5 μM, 3 weeks vs first/last 1 or 2 weeks): significantly higher when drug was added during the entire 3 weeks
- inhibition of RANK-L/M-CSF-induced human osteoclastogenesis ([12]; healthy donor cultures, 21-day assay, SDX-101 30 to 100 μM, SDX-308 3 to 10 μM): dose-dependent inhibition
- MIG secretion in osteoclast formation assays [13]: significantly decreased
- ALP activity [14]: did not decrease the ALP activity
- cellular viability, drug alone [15]: no significant effects
- concentration at which DNA synthesis (thymidine incorporation) was significantly inhibited [16]: 100 µM
- concentration at which DNA synthesis (thymidine incorporation) was significantly inhibited [17]: 100 µM
